Data: ChEMBL document CHEMBL1201862, “PubChem BioAssay data set” (2004)
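Exposure lasted 48 hours, with cells grown in 96-well plates and compounds tested at five concentrations. Here, GI50 denotes the concentration required for 50% inhibition of growth.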 Active and inactive are the calls of the source. Cut-off read from the data, not from the text of the source: active = GI50 up to about 1.1 µM and inactive = higher.

What was measured:
Assay in all cases: growth of human tumour cells (NCI), 48 h
A498 = test system: A498
ACHN = test system: ACHN
CAKI-1 = test system: CAKI-1
CCRF-CEM = test system: CCRF-CEM
EKVX = test system: EKVX
HL-60 = test system: HL-60
HT-29 = test system: HT-29
Hs-578T = test system: Hs-578T
IGROV-1 = test system: IGROV-1
K562 = test system: K562
LOX IMVI = test system: LOX IMVI
MCF7 = test system: MCF7
NCI/ADR-RES = test system: NCI/ADR-RES
OVCAR-8 = test system: OVCAR-8
RXF 393 = test system: RXF 393
SF-539 = test system: SF-539
SK-MEL-28 = test system: SK-MEL-28
UO-31 = test system: UO-31

Row | SMILES | GI50 (A498) | GI50 (ACHN) | GI50 (CAKI-1) | GI50 (CCRF-CEM) | GI50 (EKVX) | GI50 (HL-60) | GI50 (HT-29) | GI50 (Hs-578T) | GI50 (IGROV-1) | GI50 (K562) | GI50 (LOX IMVI) | GI50 (MCF7) | GI50 (NCI/ADR-RES) | GI50 (OVCAR-8) | GI50 (RXF 393) | GI50 (SF-539) | GI50 (SK-MEL-28) | GI50 (UO-31)
1 | C#C[C@]1(O)CC[C@H]2[C@@H]3CCC4=C/C(=N/OC(=O)c5cccc6c(=O)c7ccccc7[nH]c56)CC[C@@H]4[C@H]3CC[C@@]21C | > 100 µM (inactive) | 66.1 µM (inactive) | 37.5 µM (inactive) | 14.4 µM (inactive) | 71 µM (inactive) | 17.4 µM (inactive) | 52.5 µM (inactive) | 54.1 µM (inactive) | 68.4 µM (inactive) | 17.3 µM (inactive) | 34 µM (inactive) | 42.5 µM (inactive) | 58.6 µM (inactive) | 42.1 µM (inactive) | > 100 µM (inactive) | 29.5 µM (inactive) | 62.4 µM (inactive) | 53.5 µM (inactive)
2 | CN(C)c1n/c(=N/Cc2ccccc2)ss1 | > 10 µM (inactive) | > 10 µM (inactive) | > 10 µM (inactive) | 0.646 µM (active) | > 10 µM (inactive) | > 5.2 µM (inactive) | > 10 µM (inactive) | > 10 µM (inactive) | > 10 µM (inactive) | 3.21 µM (inactive) | > 5.77 µM (inactive) | > 10 µM (inactive) | > 10 µM (inactive) | > 10 µM (inactive) | > 10 µM (inactive) | > 10 µM (inactive) | > 10 µM (inactive) | 9.25 µM (inactive)
3 | CN1CC[N+](C)=C1c1ccccc1 | > 100 µM (inactive) | > 100 µM (inactive) | > 100 µM (inactive) | > 100 µM (inactive) | > 100 µM (inactive) | > 100 µM (inactive) | > 100 µM (inactive) | > 100 µM (inactive) | > 100 µM (inactive) | > 100 µM (inactive) | > 100 µM (inactive) | > 100 µM (inactive) | > 100 µM (inactive) | > 100 µM (inactive) | > 100 µM (inactive) | > 100 µM (inactive) | > 100 µM (inactive) | > 100 µM (inactive)
4 | COC(=O)C1Cc2ccc(O)c(O)c2CN1 (stereo unspecified) | > 100 µM (inactive) | > 100 µM (inactive) | > 100 µM (inactive) | 35 µM (inactive) | > 100 µM (inactive) | 25.8 µM (inactive) | 23.3 µM (inactive) | 25.4 µM (inactive) | 35.8 µM (inactive) | 28.8 µM (inactive) | 14.8 µM (inactive) | 17.1 µM (inactive) | 22.1 µM (inactive) | > 10 µM (inactive) | > 100 µM (inactive) | 18.4 µM (inactive) | 17.3 µM (inactive) | 22.5 µM (inactive)
5 | O=C1C=CC(=O)C(CNc2ccc(C(=O)OCc3ccccc3)cc2)=C1 | 11.2 µM (inactive) | 3.66 µM (inactive) | 1.38 µM (inactive) | 0.661 µM (active) | 10.4 µM (inactive) | 1.08 µM (active) | 15.2 µM (inactive) | 6.12 µM (inactive) | 3.27 µM (inactive) | 2.62 µM (inactive) | 4.14 µM (inactive) | 4.57 µM (inactive) | 4 µM (inactive) | 3.98 µM (inactive) | 2.68 µM (inactive) | 2.72 µM (inactive) | 5.11 µM (inactive) | 2.29 µM (inactive)
6 | O=C1CCC(CCc2nc3ccccc3[nH]2)(c2ccccc2)C(=O)N1 (stereo unspecified) | > 100 µM (inactive) | > 100 µM (inactive) | > 100 µM (inactive) | > 100 µM (inactive) | 62.4 µM (inactive) | > 100 µM (inactive) | > 100 µM (inactive) | 29.7 µM (inactive) | 64 µM (inactive) | 64 µM (inactive) | > 100 µM (inactive) | > 100 µM (inactive) | > 100 µM (inactive) | > 100 µM (inactive) | > 100 µM (inactive) | > 100 µM (inactive) | > 100 µM (inactive) | 20.2 µM (inactive)
7 | Cn1c(=O)c2[nH]c(C3CC(=O)CC(c4nc5c([nH]4)c(=O)n(C)c(=O)n5C)N3)nc2n(C)c1=O (stereo unspecified) | > 100 µM (inactive) | > 100 µM (inactive) | > 100 µM (inactive) | 38.3 µM (inactive) | > 100 µM (inactive) | > 100 µM (inactive) | > 100 µM (inactive) | > 100 µM (inactive) | > 100 µM (inactive) | 72.8 µM (inactive) | > 100 µM (inactive) | 71.3 µM (inactive) | > 100 µM (inactive) | > 100 µM (inactive) | > 100 µM (inactive) | > 100 µM (inactive) | > 100 µM (inactive) | > 100 µM (inactive)
